Structures are written as SMILES.

For data set [1], the target named is T1, TOP2A (Homo sapiens, UniProt P11388). Description: K-DNA decatenation assay, TOP2A. It is filed as biochemical. The following applies: 0.01-200 uM, three biological repeats. The protocol:
(§1) Figure 2 T637 and T638 are TOP2A inhibitors. (A) K-DNA decatenation assays and (B) supercoiled plasmid DNA relaxation assays are used to measure TOP2A enzyme activity in the presence of 0.01–200 uM T637 or T638. Three biological repeats were performed with each concentration of the compounds, and the densitometry of the D-DNA bands from (A) and the SC bands from (B) was used to establish an inhibition curve for IC50 calculation.

The target of data set [2] is T1, TOP2A. The data set is described as follows: Supercoiled plasmid DNA relaxation assay, TOP2A. In kind it is biochemical. The following applies: 0.01-200 uM, three biological repeats. The protocol: as §1
In data set [3] the target is T2, TOP2B (Homo sapiens, UniProt Q02880). Description: K-DNA decatenation assay, TOP2B. In kind it is biochemical. The following applies: 0.01-200 uM, three biological repeats. The protocol: (§2) Figure 3 T637 and T638 are TOP2B inhibitors. (A) K-DNA decatenation assays and (B) supercoiled plasmid DNA relaxation assays are used to measure TOP2B activity in the presence of 0.01–200 uM T637 or T638. Three biological repeats were performed with each concentration of the compounds, and the densitometry of the D-DNA bands from (A) and the SC bands from (B) was used to establish an inhibition curve for IC50 calculation.

Data set [4] addresses T2, TOP2B. Description: Supercoiled plasmid DNA relaxation assay, TOP2B. In kind it is biochemical. The following applies: 0.01-200 uM, three biological repeats. As for the experimental part: as §2
The subject of another data set is salmon sperm DNA. The data set is described as follows: Ethidium bromide displacement assay. In kind it is binding. The following applies: 100 µg/mL salmon sperm DNA, 2 µg/mL ethidium bromide. As for the experimental part:
(§3) (A) Ethidium bromide displacement assays were performed by mixing 100 µg/mL salmon sperm DNA with −/+2 µg/mL ethidium bromide and the indicated compounds. Reactions were subjected to fluorescence emission of 590 nm and excitation of 535 nm. Obtained signals were detected by using the Multimode Microplate Reader (Infinite F500). […] Reactions were subjected to 5–20% LED/excitation power and medium MST power using premium capillaries. Obtained signals were detected by using the Monolith NT.115 system. The change in thermophoresis is expressed as the change in the normalized fluorescence (ΔFnorm). MST assays were repeated with two control compounds, enzalutamide (Enza) and merbarone.

Data set [5] has as its target T3, human TOP2A(431-1193) (Homo sapiens, UniProt P11388).
T3 construct: 6xHis (N); made in house; host or cells: E. coli BL21 (DE3)
The data set is described as follows: Microscale thermophoresis (MST) binding assay. The following applies: 5 nM NT647-labelled TOP2A(431-1193), 0.015-500 µM compound; read-out: Kd, direct TOP2-compound binding (MST). The protocol:
It was transformed into BL21 (DE3) E. coli cells and induced by 0.5 mM IPTG for 16 h at 16 °C. Cells were lysed by sonication and protein purification was by chromatography with the Ni-NTA beads (Invitrogen), followed by a size exclusion chromatography (Superdex 200). […] A serial dilution of the inhibitors was prepared with 100% DMSO and subsequently mixed with the labeled fluorescent protein in the assay buffer (20 mM Tris pH 8.0, 100 mM NaCl, 0.1% NP40, 0.2 mM TCEP, and 0.1 mM PMSF) at the final concentrations of 0.015–500 uM. The final concentration of the protein was 5 nM. The labeled protein and small molecules mix were allowed to incubate in the dark at room temperature for 5 min before filling the capillaries. MST assays were performed with 5–20% LED/excitation power and medium MST power using premium capillaries for Monolith NT.115. The data for the estimation of Kd were analyzed using MO Affinity Analysis software from Nanotemper.
as §3

In data set [6] the target is T3, human TOP2A(431-1193). The data set is described as follows: EMSA, TOP2A(431-1193) with 5ZRF DNA oligo. In kind it is binding. The following applies: 2 uM protein, 300 nM oligo.
Data set [7] deals with T3, human TOP2A(431-1193). Description: Fluorescence polarization (FP) assay of TOP2A-DNA interaction. In kind it is binding. The following applies: 500 nM protein, 0.01-200 µM compound. The protocol:
Fluorescent polarization assay was performed in Corning® Low Volume 384-well Black Flat Bottom microplate. […] Triplicate reactions were transferred onto the microplate and incubated at room temperature for 20 min. Fluorescence polarization (FP) measurements were taken by Tecan Infinite F500 with the excitation wavelength of 485 nm and emission wavelength of 535 nm.
(§4) (A) EMSA was performed by purified full-length TOP2A or TOP2B proteins at a contraction of 300 nM with IRDay700 labeled 5ZRF DNA oligo at a concentration of 100 nM in the presence of −/+200 µM of ICRF193, T60, T637, and T638. […] Reactions were subjected to fluorescence […], which were detected by using the Multimode Microplate Reader (Infinite F500). (D) DNA cleavage assays were performed using full-length human TOP2A and TOP2B incubated with the supercoiled pHOT plasmid in the presence of 200 µM of etoposide plus 1, 100, or 200 µM of ICRF193, T60, T637, and T638. Reactions were separated on a DNA gel with ethidium bromide. All experiments were repeated three times, and one representative image was shown. Note: N, nicked DNA; L, linear DNA; and SC, supercoiled DNA.

A short description of the next data set: in vitro. The following applies: mouse, liver microsomes, pH 7.4.
The subject of data set [8] is cervical cancer line Hela. The data set is described as follows: Hela cell growth (Incucyte). The following applies: Homo sapiens, 120 h, read-out: Cell growth inhibition.
Procedure: (§5) (A) K562 cells were treated with 0, 0.5, 1, 5, 10, 15, and 20 uM of T60 or 0, 0.5, 1, 5, 10, 15, 20, 50, and 100 uM of T637 and T638 for 24, 48, or 72 h. […] (B) NCI-H446 small cell lung cancer line and Hela cervical cancer line were treated with 0, 0.5, 1, 5, 10, 15, and 20 uM of T60 or 0, 0.5, 1, 5, 10, 15, 20, 50, and 100 uM of T637 and T638 for five days. Cell growth rates were measured by using Incucyte^TM. (C) K562 cells were treated with 0, 5, 10, 15, and 20 uM of T60, T637, or T638 for 48 h. Cytotoxicity was evaluated by measuring the LDH levels from the culture media. (D) K562 cells were treated with the vehicle or 10–20 µM of etoposide, T60, T637, or T638 for 4 h. Immunoblotting measured p-H2AXγ levels in cells with vinculin as a loading control.
For data set [9], the system named is small cell lung cancer line NCI-H446. The data set is described as follows: NCI-H446 cell growth (Incucyte). The following applies: Homo sapiens, NCI-H446, 120 h, read-out: Cell growth inhibition.
Procedure: as §5
The next data set relates to K562 cells. The data set is described as follows: Immunoblotting of p-H2AXγ (DNA damage). The following applies: K562, 10-20 µM, 4 h.
Another data set deals with full-length TOP2A (Homo sapiens, UniProt P11388). Description: EMSA, full-length TOP2A with 5ZRF DNA oligo. It is filed as binding. More on the design: EMSA was performed by purified full-length TOP2A or TOP2B proteins. The following applies: 200 µM compound, 300 nM protein, 100 nM oligo. The protocol: as §4
Data set [10] has as its target T4, full-length TOP2B (Homo sapiens, UniProt Q02880). The data set is described as follows: EMSA, full-length TOP2B with 5ZRF DNA oligo. Details: EMSA was performed by purified full-length TOP2A or TOP2B proteins. In kind it is binding. The following applies: 200 µM compound, 300 nM protein, 100 nM oligo. As for the experimental part: as §4
Data set [11] deals with T4, full-length TOP2B. The data set is described as follows: DNA cleavage assay, TOP2B. In kind it is biochemical. More on the design: DNA cleavage assays were performed using full-length human TOP2A and TOP2B. The following applies: 200 µM etoposide plus 1, 100 or 200 µM compound, pHOT plasmid. The protocol:
as §4

T3 sequence (P11388 431-1193): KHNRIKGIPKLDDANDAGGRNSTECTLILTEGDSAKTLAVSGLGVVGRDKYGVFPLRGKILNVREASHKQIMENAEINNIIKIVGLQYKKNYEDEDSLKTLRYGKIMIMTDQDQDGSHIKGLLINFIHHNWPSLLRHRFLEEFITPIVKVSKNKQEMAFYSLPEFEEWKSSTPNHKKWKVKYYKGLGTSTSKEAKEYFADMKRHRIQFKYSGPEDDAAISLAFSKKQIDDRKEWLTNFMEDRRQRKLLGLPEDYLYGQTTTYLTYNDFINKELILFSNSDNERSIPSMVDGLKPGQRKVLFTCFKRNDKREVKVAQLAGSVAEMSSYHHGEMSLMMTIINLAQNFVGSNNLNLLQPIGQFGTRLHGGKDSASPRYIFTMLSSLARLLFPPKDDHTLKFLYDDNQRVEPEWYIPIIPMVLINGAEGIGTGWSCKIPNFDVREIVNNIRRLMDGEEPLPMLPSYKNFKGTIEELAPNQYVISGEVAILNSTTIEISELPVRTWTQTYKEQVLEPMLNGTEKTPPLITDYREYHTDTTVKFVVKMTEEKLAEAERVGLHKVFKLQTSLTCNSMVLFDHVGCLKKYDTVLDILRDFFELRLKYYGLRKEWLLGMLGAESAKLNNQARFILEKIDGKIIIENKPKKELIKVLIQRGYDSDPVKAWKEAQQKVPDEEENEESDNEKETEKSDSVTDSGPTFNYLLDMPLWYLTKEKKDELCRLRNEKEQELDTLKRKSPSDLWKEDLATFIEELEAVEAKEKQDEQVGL
T1 sequence (P11388 whole entry): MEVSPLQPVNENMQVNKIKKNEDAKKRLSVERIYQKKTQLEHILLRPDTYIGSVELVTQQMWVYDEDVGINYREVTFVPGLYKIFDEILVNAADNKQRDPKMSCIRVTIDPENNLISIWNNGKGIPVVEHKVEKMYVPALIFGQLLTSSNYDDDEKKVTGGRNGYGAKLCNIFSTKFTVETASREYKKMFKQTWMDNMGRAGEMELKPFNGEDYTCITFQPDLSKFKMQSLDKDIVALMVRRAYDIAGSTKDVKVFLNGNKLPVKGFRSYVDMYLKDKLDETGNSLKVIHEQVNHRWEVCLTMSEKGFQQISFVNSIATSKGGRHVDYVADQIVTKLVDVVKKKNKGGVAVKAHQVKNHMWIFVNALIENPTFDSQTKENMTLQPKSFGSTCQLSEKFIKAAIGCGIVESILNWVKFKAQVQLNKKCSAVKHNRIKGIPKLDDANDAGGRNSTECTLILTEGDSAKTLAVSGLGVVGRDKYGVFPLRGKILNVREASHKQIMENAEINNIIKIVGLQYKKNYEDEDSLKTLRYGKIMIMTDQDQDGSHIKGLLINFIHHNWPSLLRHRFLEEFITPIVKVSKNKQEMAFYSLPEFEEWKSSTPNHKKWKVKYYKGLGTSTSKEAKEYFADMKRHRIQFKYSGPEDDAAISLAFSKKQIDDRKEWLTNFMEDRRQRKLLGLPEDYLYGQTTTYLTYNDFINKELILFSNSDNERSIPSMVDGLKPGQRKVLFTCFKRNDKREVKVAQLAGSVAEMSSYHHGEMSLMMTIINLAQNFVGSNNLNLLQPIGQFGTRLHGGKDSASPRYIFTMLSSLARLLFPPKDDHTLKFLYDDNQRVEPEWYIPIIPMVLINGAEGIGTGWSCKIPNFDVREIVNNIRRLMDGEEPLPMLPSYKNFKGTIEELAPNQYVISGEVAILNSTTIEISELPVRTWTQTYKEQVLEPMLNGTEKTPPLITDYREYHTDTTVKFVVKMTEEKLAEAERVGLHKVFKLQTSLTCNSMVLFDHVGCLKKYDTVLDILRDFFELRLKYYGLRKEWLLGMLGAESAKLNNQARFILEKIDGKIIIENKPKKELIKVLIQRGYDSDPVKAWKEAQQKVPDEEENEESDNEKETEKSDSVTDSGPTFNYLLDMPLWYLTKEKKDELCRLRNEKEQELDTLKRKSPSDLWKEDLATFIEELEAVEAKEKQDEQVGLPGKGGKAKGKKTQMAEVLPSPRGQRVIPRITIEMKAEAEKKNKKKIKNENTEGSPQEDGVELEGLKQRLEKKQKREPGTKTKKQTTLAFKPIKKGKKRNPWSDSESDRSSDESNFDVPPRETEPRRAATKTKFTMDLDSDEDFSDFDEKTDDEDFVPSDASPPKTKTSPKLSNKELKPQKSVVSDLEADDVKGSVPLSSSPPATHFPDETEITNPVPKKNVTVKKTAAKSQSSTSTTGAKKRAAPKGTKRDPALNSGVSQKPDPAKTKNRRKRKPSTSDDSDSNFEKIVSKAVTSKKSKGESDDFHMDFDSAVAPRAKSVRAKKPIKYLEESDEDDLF
T4 sequence (Q02880 whole entry): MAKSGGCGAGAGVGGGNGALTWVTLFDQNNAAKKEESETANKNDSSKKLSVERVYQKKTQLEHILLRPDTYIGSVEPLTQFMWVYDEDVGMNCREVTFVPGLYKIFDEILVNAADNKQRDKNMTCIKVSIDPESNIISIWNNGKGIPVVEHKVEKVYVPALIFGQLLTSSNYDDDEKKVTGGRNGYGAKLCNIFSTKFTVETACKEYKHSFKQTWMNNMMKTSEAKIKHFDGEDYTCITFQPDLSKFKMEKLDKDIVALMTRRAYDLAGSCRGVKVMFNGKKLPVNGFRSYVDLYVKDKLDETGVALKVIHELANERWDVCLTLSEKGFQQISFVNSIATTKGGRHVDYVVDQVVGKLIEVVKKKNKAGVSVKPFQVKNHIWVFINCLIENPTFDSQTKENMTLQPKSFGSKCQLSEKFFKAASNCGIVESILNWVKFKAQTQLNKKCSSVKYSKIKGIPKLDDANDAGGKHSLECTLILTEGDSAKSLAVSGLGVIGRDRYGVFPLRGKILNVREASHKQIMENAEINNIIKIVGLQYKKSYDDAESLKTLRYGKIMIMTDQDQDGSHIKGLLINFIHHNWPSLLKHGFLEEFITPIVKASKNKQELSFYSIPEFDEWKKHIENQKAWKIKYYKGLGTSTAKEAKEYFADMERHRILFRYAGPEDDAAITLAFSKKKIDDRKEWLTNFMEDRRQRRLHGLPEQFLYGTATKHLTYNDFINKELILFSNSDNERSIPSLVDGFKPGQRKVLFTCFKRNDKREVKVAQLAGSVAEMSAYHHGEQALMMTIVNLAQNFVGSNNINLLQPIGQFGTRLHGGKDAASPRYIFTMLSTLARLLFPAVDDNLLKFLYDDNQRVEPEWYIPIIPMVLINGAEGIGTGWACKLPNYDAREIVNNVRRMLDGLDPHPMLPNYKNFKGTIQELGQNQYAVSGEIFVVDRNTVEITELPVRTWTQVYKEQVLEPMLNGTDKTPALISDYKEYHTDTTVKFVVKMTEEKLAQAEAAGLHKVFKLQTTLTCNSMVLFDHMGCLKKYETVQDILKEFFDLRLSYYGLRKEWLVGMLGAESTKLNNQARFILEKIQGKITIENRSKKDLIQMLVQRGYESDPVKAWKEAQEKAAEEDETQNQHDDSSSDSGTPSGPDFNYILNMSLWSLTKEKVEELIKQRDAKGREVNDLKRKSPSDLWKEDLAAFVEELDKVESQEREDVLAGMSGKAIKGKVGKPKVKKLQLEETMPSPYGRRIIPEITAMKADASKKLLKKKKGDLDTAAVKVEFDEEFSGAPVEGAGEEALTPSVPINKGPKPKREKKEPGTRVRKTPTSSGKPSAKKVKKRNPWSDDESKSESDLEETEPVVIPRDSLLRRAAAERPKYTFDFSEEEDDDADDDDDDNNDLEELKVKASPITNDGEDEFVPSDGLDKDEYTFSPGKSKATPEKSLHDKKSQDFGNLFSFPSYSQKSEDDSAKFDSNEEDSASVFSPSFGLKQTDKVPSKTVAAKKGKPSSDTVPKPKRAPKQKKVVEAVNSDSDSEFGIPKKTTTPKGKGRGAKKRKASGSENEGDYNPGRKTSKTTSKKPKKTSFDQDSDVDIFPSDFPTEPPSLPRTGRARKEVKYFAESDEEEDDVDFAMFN
T2 sequence (Q02880 whole entry): as above
full-length TOP2A, sequence (P11388 whole entry): as the sequence (P11388 whole entry) above
Procedure for K562 cells: as §5
Procedure for in vitro: The reaction was initiated by adding NADPH, followed by incubation at 37 °C. […] The samples were then vortexed and centrifuged at 16,000 rpm for 10 min at 4 °C. The supernatants were collected and analyzed by LC/MS/MS to determine the remaining percentage and the half-life (t1/2) by integrating compound peaks and fitting the resulting AUC values and time points to a one-phase decay equation.

For `Nc1cc(Nc2ccccc2)ccc1NC(=O)c1ccc[nH]c1=S` [T638], the IC50 at TOP2A [1] is approximately 0.7 µM; against TOP2A [2], 2.1 µM; against TOP2B [3], approximately 3.8 µM; against TOP2B [4], 7.5 µM. Besides, the “Fluorescence induced by the ethidium bromide/DNA complex reduced by increasing doses (DNA intercalation)” value in the data set on salmon sperm DNA is on record as “not”. Further, the Kd on human TOP2A(431-1193) [5] is approximately 87 µM. For the same molecule, the “Inhibition of TOP2A(431-1193)-DNA interaction (EMSA)” value at human TOP2A(431-1193) [6] is “inhibited TOP2A–DNA interaction dose-dependently”. In addition, on human TOP2A(431-1193) [7], the “Effect on TOP2A-DNA interaction (FP)” value is “reduced the TOP2A–DNA interaction in a dose-dependent manner”. For the same molecule, the half-life at 1 uM in the data set “in vitro” was more than 16.7 h. The same molecule gave a microsomal CLint at 1 uM in “in vitro” of 2 µL/min/mg. For the same molecule, the inhibition at 100 µM in data set [8] and in data set [9] was 100% each time. In addition, the “Intracellular DNA damage (phospho-H2AXγ protein levels)” value with K562 cells was “do not cause intracellular DNA damage”. Besides, the “Block of TOP2A-DNA oligo complex formation (EMSA)” value at full-length TOP2A is “block”. In addition, the “Block of TOP2B-DNA oligo complex formation (EMSA)” value at full-length TOP2B [10] is reported as “block”. For the same molecule, the “Prevention of etoposide-induced DNA cleavage, TOP2B” value on full-length TOP2B [11] is on record as “did prevent etoposide-induced DNA cleavage”.

These data come from PMC8345109, “Optimization of New Catalytic Topoisomerase II Inhibitors as an Anti-Cancer Therapy” (Cancers, 2021).
